Series [1] concerns the target T1, pol η (Homo sapiens, UniProt Q9Y253).
T1 sequence (Q9Y253 1-713): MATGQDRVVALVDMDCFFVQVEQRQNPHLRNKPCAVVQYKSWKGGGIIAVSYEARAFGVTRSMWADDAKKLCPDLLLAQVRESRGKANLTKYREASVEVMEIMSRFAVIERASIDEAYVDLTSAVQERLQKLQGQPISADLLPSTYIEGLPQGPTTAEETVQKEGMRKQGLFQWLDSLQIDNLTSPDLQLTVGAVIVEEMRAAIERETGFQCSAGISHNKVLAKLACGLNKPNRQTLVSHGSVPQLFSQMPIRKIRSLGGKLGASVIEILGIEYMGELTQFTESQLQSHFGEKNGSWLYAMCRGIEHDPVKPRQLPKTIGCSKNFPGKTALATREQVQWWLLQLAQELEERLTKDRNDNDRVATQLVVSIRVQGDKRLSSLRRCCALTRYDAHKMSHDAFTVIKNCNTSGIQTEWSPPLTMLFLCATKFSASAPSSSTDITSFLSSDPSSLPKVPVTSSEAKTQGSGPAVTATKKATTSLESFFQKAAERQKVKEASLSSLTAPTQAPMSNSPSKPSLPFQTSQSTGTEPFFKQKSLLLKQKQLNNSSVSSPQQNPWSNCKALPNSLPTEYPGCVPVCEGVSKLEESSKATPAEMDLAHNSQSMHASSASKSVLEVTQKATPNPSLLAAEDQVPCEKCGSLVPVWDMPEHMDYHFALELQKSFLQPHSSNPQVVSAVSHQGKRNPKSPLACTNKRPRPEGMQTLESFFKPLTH
It counts as biochemical. Particulars: for increase in G·T misincorporation rate constant (kpol), W versus B: G opposite T, W sequence compared to B sequence; for Kd: read-out: apparent Kd.

A short description of series [2]: Potentiometric titration of leaving-group acids. Particulars: 0.1 M KCl, 25 °C. The class given is physicochemical.
[3] abbreviates: G opposite T (mispair), B sequence.
The mark [4] stands for this setting: G opposite T (mispair), W sequence.
[5] abbreviates: A opposite T (correct), B sequence.
The mark [6] stands for this setting: A opposite T (correct), W sequence.

Each structure is given as a SMILES string. Values joined by “and” are separate entries in the source; they are usually repeats but may differ in a detail not shown here. Identical values can stand only once. Like-named read-outs stand apart in the source and are kept apart here.

Consider `Nc1nc2c(ncn2[C@H]2C[C@H](O)[C@@H](COP(=O)(O)OP(=O)(O)OP(=O)(O)O)O2)c(=O)[nH]1` [dGTP], for which the “kpol (chemical misincorporation rate constant)” value in series [1] (setting [3]) is 0.21 ± 0.02 s⁻¹; in series [1] (setting [4]) it was 0.86 ± 0.02 s⁻¹. For the same molecule, the “increase in G·T misincorporation rate constant (kpol), W versus B” value in series [1] was ~ 4 fold and 3–4 fold and 4 fold. Moreover, the values for the Kd in series [1] (setting [3]) and in series [1] (setting [4]) were 30 ± 3 µM and 20 ± 4 µM, respectively.

In series [2], `O=P(O)(O)NP(=O)(O)O` [imidodiphosphoric acid] yielded a pKa1 of 2.01, a pKa2 of 2.81 and a pKa3 of 7.11. Moreover, in series [2] (imidodiphosphoric acid (NH leaving group)), the “pKa4 (soln)” value turned out to be 9.70.

As for `Nc1nc2c(ncn2C2CC(O)C(COP(=O)(O)OP(=O)(O)C(F)P(=O)(O)O)O2)c(=O)[nH]1` (stereo not shown) [dGTP-CHF], the “kpol (chemical misincorporation rate constant)” value in series [1] (setting [3]) was 0.032 ± 0.005 s⁻¹; in series [1] (setting [4]) it was 0.12 ± 0.00 s⁻¹. Further, the “increase in G·T misincorporation rate constant (kpol), W versus B” value in series [1] is 3.8 fold and 4 fold; in series [1] (listed as CHF-dG) it was 3–4 fold. In addition, the values for the Kd in series [1] (setting [3]) and in series [1] (setting [4]) were 370 ± 60 µM and 390 ± 20 µM, respectively.

As for `Nc1ncnc2c1ncn2[C@H]1C[C@H](O)[C@@H](COP(=O)(O)OP(=O)(O)OP(=O)(O)O)O1` [dATP], the Kd in series [1] (setting [5]) was 9.4 ± 3.1 µM; in series [1] (setting [6]), 7.1 ± 2.1 µM.

For the molecule `Nc1ncnc2c1ncn2[C@H]1CC(O)[C@@H](COP(=O)(O)OP(=O)(O)C(F)P(=O)(O)O)O1` (stereo partly shown) [dATP-CHF], the figures for the Kd in series [1] (setting [5]) and in series [1] (setting [6]) were 190 ± 80 µM and 140 ± 20 µM, respectively.

Source of the values: paper PMC6681824 (Biochemistry, 2019).
